Source: patent US4337260A, “Imidazopyridine-spiro-piperidine compounds” (Yoshitomi Pharmaceutical Industries, Ltd., priority 1981, dated 1982)

Legend:
[1] = test system: apomorphine-induced vomiting; assay: Effect on apomorphine-induced vomiting; assay type: in vivo; settings: Canis lupus familiaris, po, 2 hours prior to apomorphine hydrochloride (0.1 mg/kg, s.c.); beagle dogs; vomiting checked for 2 hours
Procedure: (1) Effect on apomorphine-induced vomiting
The test was performed according to the method described by M. Nakanishi et al. in "Arzneimittel-Forschung", vol. 21, 391 ff (1971).
Groups of 5-10 beagle dogs of both sexes each were used. The test compound was administered orally 2 hours prior to the treatment with apomorphine hydrochloride (0.1 mg/kg, s.c.). The incidence of vomiting was checked for 2 hours, and the ED50 (50% effective dose) was determined.

Cataleptogenic activity = settings: rat, in vivo, ip; Wistar female rats; from total points of the maximum appearance of catatonia; read-out: Cataleptogenic Activity ED50
Procedure: (2) Cataleptogenic Activity
The test was performed according to the method described by W. Wirth et al. in "Archives Internationales de Pharmacodynamie et de Therapie", vol, 115, 1 ff (1958).
Groups of 5 Wistar female rats each were used. […] The ED50 was determined from total points of the maximum appearance of catatonia.

| Structure (SMILES) | ED50 [1] [mg/kg] | TD50 (Cataleptogenic activity) [mg/kg] |
| --- | --- | --- |
| CN(C)CCCN1c2ccccc2Sc2ccc(Cl)cc21 [Chlorpromazine, reference compound] | 5.1 | 12 |
| Cl.Cl.O.O=C1NC2CCCCN2C12CCN(CCCN1c3ccccc3CCc3ccccc31)CC2 (centres unmarked) [Test Compound A, 1'-[3-(10,11-dihydro-5H-dibenzo[b,f]azepin-5-yl)propyl]-1,2,3,5,6,7,8,8a-octahydro-2-oxo-imidazo[1,2-a]pyridine-3-spiro-4'-piperidine dihydrochloride monohydrate] | 2.5 | > 50 |
| Cl.Cl.O.O=C1NC2CCCCN2C12CCN(CCCN1c3ccccc3CCc3ccc(Cl)cc31)CC2 (centres unmarked) [Test Compound B, 1'-[3-(3-chloro-10,11-dihydro-5H-dibenz[b,f]azepin-5yl)propyl]-1,2,3,5,6,7,8,8a-octahydro-2-oxo-imidazo[1,2-a]pyridine-3spiro-4'-piperidine dihydrochloride monohydrate] | 0.5 | > 50 |
| Cl.Cl.O.O=C1N=C2CCCCN2C12CCN(CCCN1c3ccccc3CCc3ccccc31)CC2 [Test Compound C, 1'-[3-(10,11-dihydro-5H-dibenz[b,f]azepin-5-yl)propyl]-2,3,5,6,7,8-hexahydro-2-oxo-imidazo[1,2-a]pyridine-3-spiro-4'-piperidine dihydrochloride monohydrate] | 2 | > 50 |
